Where two headings read alike, the source gives them in different places.
Columns and labels:
[1] = system: IP-10 release in differentiated THP-1 cells; test: IP-10 cytokine release assay in THP-1 cell lines; type: cell-based, Human; conditions: for EC50: Homo sapiens
Protocol: Percent release of Interferon gamma-induced protein 10 (IP-10) was determined in acute monocytic leukemia (THP-1; ATCC® TIB-202™) cell line. THP-1 cells (0.2×10^6 cells/well) were differentiated using phorbol 12-myristate 13-acetate (PMA, 10 nM (final concentration); Cat #P8139, Sigma) and incubated for 24 h at 37° C., 5% CO2 in an incubator (cell culture conditions) prior to treating with serial dilutions of compounds (3 fold, 6 point dose response starting at 10 μM). After treatment with the compounds cells were further incubated for 2 h under cell culture conditions and then exposed to 2′,3′-cGAMP (c-GAMP, 1 μM (final concentration); Cat #SML 1229, Sigma). Differentiated THP-1 cells were further cultured for 24 h after which the supernatant was harvested, and ELISA was performed as per the manufacturer's protocol (BD optEIA Human IP-10 ELISA Set; Cat #550926 & 550534, BD Biosciences). Plates were read in Biotek plate reader by measuring absorbance at 450 nm.
The release of absolute IP-10 in differentiated THP-1 by compounds in the presence of cGAMP was quantified with reference to standard after subtracting blank (negative) reading from the test readings. The absolute release of IP-10 in the presence of cGAMP (1 μM) is given in the bar-graph (FIG.-1) and in the table-B2a.
The release of IP-10 in differentiated THP-1 by compounds over cGAMP induced release at four different concentrations of cGAMP (1, 5, 10 & 30 μM) was quantified with reference to standard by normalizing the blank (negative) subtracted test readings from average of cGAMP activated cells at that particular concentration. The EC50's was calculated by fitting the curve to the “four-parameter variable slope logistic model” using Prism Graph Pad.

[2] = biological target: ENPP-1 (Ectonucleotide Pyrophosphatase/Phosphodiesterase 1) (Homo sapiens (Human), UniProt P22413); test: ENPP1 inhibition assay (AMP Glo, cGAMP substrate); type: biochemical
Chain of ENPP-1 (Ectonucleotide Pyrophosphatase/Phosphodiesterase 1) (P22413 whole entry): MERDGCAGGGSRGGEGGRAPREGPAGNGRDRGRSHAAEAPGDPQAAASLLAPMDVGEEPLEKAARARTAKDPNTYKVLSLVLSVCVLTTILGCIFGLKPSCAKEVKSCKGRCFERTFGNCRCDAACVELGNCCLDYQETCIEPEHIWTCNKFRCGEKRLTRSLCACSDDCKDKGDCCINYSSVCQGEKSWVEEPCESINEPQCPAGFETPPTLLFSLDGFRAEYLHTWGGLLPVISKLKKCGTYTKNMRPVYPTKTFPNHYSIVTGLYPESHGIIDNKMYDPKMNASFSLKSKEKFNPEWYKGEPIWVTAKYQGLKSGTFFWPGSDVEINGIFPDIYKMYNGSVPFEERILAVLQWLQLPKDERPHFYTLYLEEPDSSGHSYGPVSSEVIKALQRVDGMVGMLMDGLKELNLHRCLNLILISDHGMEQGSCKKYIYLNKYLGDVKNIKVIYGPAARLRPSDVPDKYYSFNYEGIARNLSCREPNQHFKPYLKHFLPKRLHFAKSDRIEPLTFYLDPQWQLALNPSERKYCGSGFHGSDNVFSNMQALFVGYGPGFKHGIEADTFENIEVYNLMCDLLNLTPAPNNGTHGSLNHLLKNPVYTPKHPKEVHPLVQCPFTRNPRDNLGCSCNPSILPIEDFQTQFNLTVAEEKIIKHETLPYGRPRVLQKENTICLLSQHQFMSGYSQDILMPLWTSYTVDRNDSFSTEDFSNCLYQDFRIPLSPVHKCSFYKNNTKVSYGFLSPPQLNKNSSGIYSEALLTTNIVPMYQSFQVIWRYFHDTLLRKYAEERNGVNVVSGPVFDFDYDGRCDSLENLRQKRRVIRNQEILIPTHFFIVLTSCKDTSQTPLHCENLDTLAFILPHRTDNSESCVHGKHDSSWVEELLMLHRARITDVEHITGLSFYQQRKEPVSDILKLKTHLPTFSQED

[3] = THP-1, read-out: EC50 (μM)@ 1 μM of cGAMP
[4] = read-out: EC50 (μM)@ 1 μM of cGAMP, IP-10 release over cGAMP induced release, THP-1, 1 μM cGAMP
[5] = cGAMP 20 μM substrate, ENPP1 1 nM

SMILES | EC50 [1, 4] | IC50 [2, 5] | also measured
Nc1nc2c(ncn2[C@@H]2O[C@@H]3COP(=O)(O)O[C@H]4[C@@H](O)[C@H](n5cnc6c(N)ncnc65)O[C@@H]4COP(=O)(O)O[C@@H]2[C@@H]3O)c(=O)[nH]1 [CGAMP, 2′,3′-cGAMP, reference compound] | – | – | Percent release IP-10 (Absolute) ([1]; cGAMP (1 μM) alone, differentiated THP-1): 5.6%
COc1cc2ncnc(N3CC(CCNC(C)=O)C3)c2cc1OC [Compound 1.7, N-(2-[1-(6,7-dimethoxyquinazolin-4-yl)azetidin-3-yl]ethyl)acetamide] | – | – | EC50 [1, 3]: > 30 µM
COc1cc2nc(C)nc(N3CC(CCNS(N)(=O)=O)C3)c2cc1OC [Compound 1.17, 4-(3-(2-sulfamoylaminoethyl)azetidine-1-yl)-6,7-dimethoxy-2-methylquinazoline] | – | – | EC50 [1, 3]: 0.129 µM; IC50 [2]: 0.057 µM
COc1cc2nncc(N3CC(CCNS(N)(=O)=O)C3)c2cc1OC [Compound 1.27, 4-(3-(2-sulfamoylaminoethyl)azetidine-1-yl)-6,7-dimethoxycinnoline] | < 0.1 µM | 0.043 µM | –
COc1cc2ncnc(N3CC4(CC(N(C)S(N)(=O)=O)C4)C3)c2cc1OC [Compound 1.46, N-[2-(6,7-di-methoxyquinazoline-4-yl)-2-azaspiro[3.3]hept-6-yl]-N-methylsulfuric diamide] | 0.912 µM | 0.019 µM | –
COc1cc2ncnc(N3CC4(CC(N(C5CC5)S(N)(=O)=O)C4)C3)c2cc1OC [Compound 1.48, N-[2-(6,7-di-methoxyquinazoline-4-yl)-2-azaspiro[3.3]hept-6-yl]-N-cyclopropylsulfuric diamide] | > 30 µM | 0.144 µM | –
COc1cc(OC)c2ncnc(N3CC(CCNS(N)(=O)=O)C3)c2c1 [Compound 1.50, 4-(3-(2-sulfamoylaminoethyl)azetidine-1-yl)-6,8-di-methoxyquinazoline] | > 30 µM | 1.48 µM | –
COc1cc2ncnc(N3CC(CCNS(N)(=O)=O)C3)c2cc1F [Compound 1.66, 4-(3-(2-sulfamoylaminoethyl)azetidine-1-yl)-6-fluoro-7-methoxy quinazoline] | < 0.12 µM | 0.006 µM | –
COc1cc2ncnc(N3CC(CCCNS(N)(=O)=O)C3)c2cc1OC [Compound 1.69, 4-3-(3-sulfamoylaminopropyl)azetidin-1-yl-6,7-dimethoxyquinazoline] | 0.724 µM | – | –
Cn1ncc2c(N3CC4(CC(N(CC(F)F)S(N)(=O)=O)C4)C3)ncnc21 [Compound 1.121, N-(2,2-difluoroethyl)-N-(2-(1-methyl-1H-pyrazolo[3,4-d]pyrimidin-4-yl)-2-azaspiro[3.3]heptan-6-yl)sulfamamide] | – | 0.565 µM | –
COCCN(C1CC2(C1)CN(c1ncnn3c(Cl)cc(C)c13)C2)S(N)(=O)=O [Compound 1.122, N-(2-(7-chloro-5-methylpyrrolo[1,2-f][1,2,4]triazin-4-yl)-2-azaspiro[3.3]heptan-6-yl)-N-(2-methoxyethyl)sulfamamide] | – | 0.062 µM | –
Cc1cc(Cl)n2ncnc(N3CC4(CC(NCc5ccc(S(N)(=O)=O)cc5)C4)C3)c12 [Compound 1.132, 4-(((2-(7-chloro-5-methylpyrrolo[2,1-f][1,2,4]triazin-4-yl)-2-azaspiro[3.3]heptan-6-yl)amino)methyl)benzenesulfonamide] | – | 0.181 µM | –
Cc1cc(Cl)n2ncnc(N3CC4(CC(N(C)Cc5ccc(S(N)(=O)=O)cc5)C4)C3)c12 [Compound 1.133, 4-(((2-(7-chloro-5-methylpyrrolo[2,1-f][1,2,4]triazin-4-yl)-2-azaspiro[3.3]heptan-6-yl)(methyl)amino)methyl)benzenesulfonamide] | – | 0.27 µM | –

Now from value to compound, other results behind:

EC50 [1, 4] | IC50 [2, 5] | SMILES | also measured
< 0.12 µM | 0.084 µM | CCOc1cccc2c(N3CC(CCNS(N)(=O)=O)C3)ncnc12 [Compound 1.19, 4-(3-(2-sulfamoylaminoethyl)azetidine-1-yl)-8-ethoxyquinazoline] | –
0.49 µM | 0.009 µM | COc1cc2ncnc(N3CC(C)(CCNS(N)(=O)=O)C3)c2cc1OC [Compound 1.22, 4-(3-Methyl-3-(2-sulfamoylaminoethyl)azetidine-1-yl)-6,7-dimethoxyquinazoline] | –
< 0.12 µM | 0.006 µM | COc1ccc2c(N3CC4(CC(NS(N)(=O)=O)C4)C3)ncnc2c1 [Compound 1.26, 4-(6-sulfamoylamino-2-azaspiro[3.3]heptan-2-yl)-7-methoxyquinazoline] | –
> 30 µM | 0.099 µM | COc1cc2nc(-c3ccncc3)nc(N3CC(CCNS(N)(=O)=O)C3)c2cc1OC [Compound 1.35, 4-(3-(2-sulfamoylaminoethyl)azetidine-1-yl)-6,7-dimethoxy-2-(pyridin-4-yl)quinazoline] | –
19.9 µM | – | COc1cc2ncnc(N3CC(CCN(C)S(N)(=O)=O)C3)c2cc1OC [Compound 1.47, 4-(3-(2-sulfamoylmethylaminoethyl)azetidine-1-yl)-6,7-di-methoxyquinazoline] | –
> 30 µM | > 1.98 µM | COc1cc2ncnc(N3CC4(CC(NS(C)(=O)=O)C4)C3)c2cc1OC [Compound 1.49, N-(2-(6,7-dimethoxyquinazolin-4-yl)-2-azaspiro[3.3]heptan-6-yl)methanesulfonamide] | –
> 30 µM | 0.015 µM | COc1cc2ncnc(N3CC(CCC(=O)NO)C3)c2cc1OC [Compound 1.51, 3-(1-(6,7-dimethoxyquinazolin-4-yl)azetidin-3-yl)-N-hydroxypropanamide] | –
> 18.6 µM | 0.043 µM | COc1cc2ncnc(N3CC(CCS(N)(=O)=O)C3)c2cc1OC [Compound 1.52, 2-(1-(6,7-dimethoxyquinazolin-4-yl)azetidin-3-yl)ethanesulfonamide] | –
< 0.12 µM | – | COc1cc2ncnc(N3CC4(CC(C(=O)NO)C4)C3)c2cc1OC [Compound 1.63, 2-(6,7-dimethoxyquinazolin-4-yl)-N-hydroxy-2-azaspiro[3.3]heptane-6-carboxamide] | –
– | 0.018 µM | Cc1cc(Cl)n2ncnc(N3CC4(CC(N(CC(O)C(F)(F)F)S(N)(=O)=O)C4)C3)c12 (stereo not drawn) [Compound 1.120, N-(2-(7-chloro-5-methylpyrrolo[2,1-f][1,2,4]triazin-4-yl)-2-azaspiro[3.3]heptan-6-yl)-N-(3,3,3-trifluoro-2-hydroxypropyl)sulfamamide] | –
– | 0.039 µM | CN(C1CC2(C1)CN(c1ncnc3c(Cl)cn(C)c13)C2)S(N)(=O)=O [Compound 1.123, N-(2-(7-chloro-5-methyl-5H-pyrrolo[3,2-d]pyrimidin-4-yl)-2-azaspiro[3.3]heptan-6-yl)-N-methylsulfamamide] | –
– | 1.86 µM | CN(C1CC2(C1)CN(c1ncnc3[nH]cc(Cl)c13)C2)S(N)(=O)=O [Compound 1.124, N-(2-(5-chloro-7,7α-dihydro-4αH-pyrrolo[2,3-d]pyrimidin-4-yl)-2-azaspiro[3.3]heptan-6-yl)-N-methylsulfamamide] | –
– | 0.043 µM | Cc1cc(Cl)n2ncnc(N3CC4(CC(N(CCF)S(N)(=O)=O)C4)C3)c12 [Compound 1.127, N-[2-(7-chloro-5-methylpyrrolo[2,1-f][1,2,4]triazin-4-yl)-2-azaspiro[3.3]hept-6-yl]-2-fluoroethylsulfuric diamide] | –
– | 0.03 µM | Cc1cc(Cl)n2ncnc(N3CC4(CC(N(CC(C)(F)F)S(N)(=O)=O)C4)C3)c12 [Compound 1.128] | –
– | 0.047 µM | Cc1cc(Cl)n2ncnc(N3CC4(CC(N(CC(F)(F)F)S(N)(=O)=O)C4)C3)c12 [Compound 1.129, N-(2-(7-chloro-5-methylpyrrolo[1,2-f][1,2,4]triazin-4-yl)-2-azaspiro[3.3]heptan-6-yl)-N-(2,2,2-trifluoroethyl)sulfamamide] | –
– | 0.055 µM | COc1ccc2c(N3CC4(CC(N(CC(F)F)S(N)(=O)=O)C4)C3)ncnc2c1 [Compound 1.131, N-(2,2-difluoroethyl)-N-(2-(7-methoxyquinazolin-4-yl)-2-azaspiro[3.3]heptan-6-yl) sulfamamide] | –
